Laboratory results from patent publication US12351819B2, “Method for removing undifferentiated pluripotent stem cells” (priority 2017, dated 2025).

Legend:
hBMMSCs = assay: Chondrogenic induction and Alcian blue assay; assay type: cell-based, human; conditions: 2.5 μM 24 hours, drug removed; Alcian blue O.D 650 nm
Experimental: Next, drugs were removed, and 1×10^5 cells were seeded in 96-well U-bottom culture plated. After 24 hours, we changed the complete MSCgo™ Chondrogenic medium (Biological Industries) for 21 days. The media were changed every 3-4 days. Next, the pelleted cells were fixed with 4% formaldehyde for 1 hours, washed twice with ddH2O, and stained with a 1% Alcian blue solution in 0.1N HCl for 30 min. For Alcian Blue elution, we added […] Guanidine HCL solution and incubated overnight at RT. The absorbance at 650 nm was detected.

[1] = tested on: cleaved PARP, caspase-3, caspase-7 in hESCs; assay: Western blot of apoptotic markers, hESCs; assay type: cell-based, human; conditions: 2.5 μM, 12 hours
Experimental: (§1) RIPA buffer was used to harvest cell lysates (RIPA buffer: NaCl 150 mM, Tris pH 8.0 50 mM, EDTApH 8.0 5 mM, NP-40 1.0%, SDS 0.5%, sodium deoxycholate 0.1%). Western blot analyses were performed as previously described with different types of primary antibodies^29. The primary antibody includes anti-β-actin (A5441; Sigma), anti-Oct4 (sc-9081; Santa Cruz Biotechnology, Santa Cruz, CA, USA), anti-Nanog (3580; Cell Signaling Technology, Danvers, MA, USA), apoptosis antibody kit (9915; Cell Signaling Technology), ATP1A1 (3010; Cell Signaling Technology), and ATP1A2 (16836-1-AP; Proteintech™) were used. After reaction at 4° C. overnight, the blots were incubated with goat anti-mouse- or goat anti-rabbit antibody conjugated with horseradish peroxidase (Jackson ImmunoResearch Inc). The chemiluminescent substrate (WBKLS0500; Millipore, Darmstadt, Germany) was used to detect the blots. Fujifilm LAS-4000 (FUJIFILM, Tokyo, Japan) was used to take the images.

hiPSCs = conditions: for cytotoxicity (LDH release) in hiPSCs: 2.5 μM, 24 hours; for LDH assay positive, hiPSCs: Table 1
Experimental: (§2) The supernatants of cells treated with digoxin […], lanatoside C 2.5 μm, or DMSO solvent control for 24 hours were harvested. The released LDH was measured using CytoTox 96 […] assay according to the manufacture's instruction (Promega, Southampton, UK). The supernatants and reagents were incubated at room temperature for 20 minutes and then the reaction was stopped by Stop Solution. The absorbance at 490 nm was measured using a plate-reading spectrophotometer (Benchmark Plus Microplate Spectrophotometer System, BIO-RAD, CA, USA).
hiPSC-derived endothelial cells were prepared according in a previous report^34. The hiPSCs were maintained in mTeSR 1 medium ([…] Technologies, Vancouver, Canada) on VTN-N coated plates (Thermo, Wilmington, DE, USA). First, for the stepwise induction of differentiation, we performed a mesoderm induction of hiPSCs seeded in mesoderm induction medium for 48 hours (basal medium with […], […], and 2 ng/ml of Activin A; basal medium was composed of 12 g/L of DMEM/F-12, 3.56 g/L of HEPES, 1.742 g/L of sodium bicarbonate, 14 μg/L of sodium selenite, 10.7 mg/L of recombinant transferrin, 19.4 mg/L of recombinant insulin, and 64 mg/L of L-Ascorbic acid 2-phosphate sesquimagnesium salt hydrate). Second, for the mesoderm to endothelium transition, mesoderm cells were reseeded in vasculogenic medium (basal medium with 2 mg/ml of PVA plus 20 ng/ml of hVEGF-A) for an additional 72 hours. All differentiated cells were plated on VTN pre-coated culture plate dishes. The endothelial cells were analyzed on day 5 by flow cytometry staining with the CD31 (PECAM1, ThermoFisher Scientific, Wilmington, DE, USA) and CD144 (CDH5, ThermoFisher Scientific) antibodies.

[2] = tested on: mixture of hESCs and GFP-overexpressing hBMMSCs; assay: Kidney capsule transplantation of treated hESCs and hBMMSCs; assay type: in vivo; conditions: drug-treated hESCs and hBMMSCs under the kidney capsule, NSG mice, five weeks
Experimental: The 293T cells were seeded with 10^6 cells in 6-well plates for the generation of the lentivirus. After 24 hours, the 293T cells were transfected with 1 μg of pLKO_AS3w.eGFP.bsd, 0.9 μg of pCMVR8.91, and 0.1 μg of pMD.G (National RNAi Core Facility, Taipei, Taiwan) via the TurboFect transfection reagent (Thermo Fisher Scientific). At 24 hours after the transfection, the medium was refreshed with the virus harvest medium, which contained HG-DMEM, 10% FBS and 1% BSA. The hBMMSCs were seeded in 6-well plates and later incubated with the lentivirus (multiplicity of infection=10) for one day. The cells were selected with 10 μg/ml blasticidin (Thermo Fisher Scientific) the following day. The GFP overexpressing hBMMSCs were then isolated using a cell sorter (FACS Aria™ II, BD Biosciences) and cultured in a medium containing 10 μg/ml blasticidin for the following experiments.
Mixtures of approximately 8×10^5 hESCs and 8×10^5 hBMMSCs were injected under the kidney capsules into 6-week-old male NSG mice. Five weeks after the transplantation, the animals were sacrificed, and the tissues were removed, fixed in 10% formalin, embedded in paraffin, stained with H&E or were subjected to IHC staining. The staining protocols were described in the materials and method section. Chicken anti-GFP (ab 13970, Abcam, Cambridge, MA, USA) antibody was used for the GFP overexpressing hBMMSCs IHC staining.

Nanog in hESCs = assay: Western blot of pluripotent stem cell marker Nanog, hESCs; assay type: cell-based, human; conditions: 2.5 μM, 12 hours
Experimental: as §1

[3] = tested on: human bone marrow mesenchymal stem cells (hBMMSCs); conditions: 2.5 μM, 24 hours, vs DMSO
Experimental: (§3) The hESC line H9 was purchased from WiCells (Madison, WI, USA)^27. Another hESC line, HUES6, was kindly provided by Dr. Douglas A. Melton (Harvard University, Boston, MA, USA)^28. Cells were maintained on the feeder cells and cultured in Dulbecco's modified Eagle's medium (DMEM)/F12 supplemented with 20% knockout serum replacement, 2 mM L-glutamine, 1% nonessential amino acids, 4 ng/mL human bFGF, and 0.1 mM 2-mercaptoethanol. For the feeder cells culture, C57BL/6 mouse embryonic fibroblasts (MEF) were cultured in the DMEM with 10% FBS and treated cells with 0.01 mg/ml mitomycin C 2-6 hours for inactivation. For the feeder-free culture, hESCs were seeded on the Matrigel Matrix (BD Biosciences, San Jose, CA, USA) coated culture plates and maintained by conditioned medium of MEF (C57BL/6). hBMMSCs were cultured in mesenPRO RS™ kit (Life Technologies, Camarillo, CA, USA). All cells were cultured in a humidified atmosphere containing 5% CO2 at 37° C.
as §2

hESCs (H9) = conditions: for cytotoxic effect (LDH release) in hESCs: 2.5 μM, 24 hours, vs DMSO; for LDH assay positive, hESCs: Table 1
Experimental: as §3, §2

Structure (SMILES)	differentiation ability of hBMMSCs into chondrocytes (hBMMSCs)	cleaved form of PARP, caspase-3, caspase-7 in hESCs [1]	cytotoxicity (LDH release) in hiPSCs (hiPSCs)	LDH assay positive, hiPSCs (hiPSCs)	tumor area of kidney tissue [2]	protein levels of Nanog in hESCs (Nanog in hESCs)	cytotoxic effect (LDH release) in hBMMSCs [3]	cytotoxic effect (LDH release) in hESCs (hESCs (H9))	LDH assay positive, hESCs (hESCs (H9))
CC(=O)O[C@H]1C[C@H](O[C@H]2[C@@H](O)C[C@H](O[C@H]3[C@@H](O)C[C@H](O[C@H]4CC[C@@]5(C)[C@H](CC[C@@H]6[C@@H]5C[C@@H](O)[C@]5(C)[C@@H](C7=CC(=O)OC7)CC[C@]65O)C4)O[C@@H]3C)O[C@@H]2C)O[C@H](C)[C@H]1O[C@@H]1O[C@H](CO)[C@@H](O)[C@H](O)[C@H]1O [Lanatoside C, lanatoside C]	neither digoxin nor lanatoside C affected the differentiation ability	increases in the cleaved form	induced cytotoxicity	+++ (more than 70% positive cells)	significantly inhibited	downregulated	no cytotoxic effects	significantly induced a cytotoxic effect	+++ (more than 70% positive cells)
C[C@H]1O[C@@H](O[C@H]2[C@@H](O)C[C@H](O[C@H]3[C@@H](O)C[C@H](O[C@H]4CC[C@@]5(C)[C@H](CC[C@@H]6[C@@H]5C[C@@H](O)[C@]5(C)[C@@H](C7=CC(=O)OC7)CC[C@]65O)C4)O[C@@H]3C)O[C@@H]2C)C[C@H](O)[C@@H]1O [Digoxin, digoxin]	neither digoxin nor lanatoside C affected the differentiation ability	increases in the cleaved form	induced cytotoxicity	+++ (more than 70% positive cells)	significantly inhibited	downregulated	no cytotoxic effects	significantly induced a cytotoxic effect	+++ (more than 70% positive cells)
